In US6376504B1 (Parker Hughes Institute, priority 1998, dated 2002):
Entries after “also recorded” stand apart in the source; their conditions may differ. Read-outs that look alike come from different tables or passages of the source.

Legend:
[1] = tested on: normal human ectocervical epithelial cells (CrEC 4627); assay: MTT cell proliferation assay, ectocervical epithelial cells; format: cell-based; settings: for IC50: Homo sapiens, Epithelial cell, read-out: IC50 ectocervical epithelial cells; for SI (Selectivity Index) ectocervical epithelial cells: ratio of IC50 to EC50 (sperm)
Procedure: (§1) Normal human ectocervical (CrEC 4627) and endocervical epithelial cells (CrEC-En 4312) were obtained from Clonetics, (San Diego, Calif.) and propagated in T-150 cm^2 tissue culture flasks (Corning Corp., Corning, N.Y.) in small airway epithelial cell basal medium (Clonetics) supplemented with 50 μg/ml BPE, 0.5 μg/ml hydrocortisone, 0.5 μg/ml hEGF, 0.1 μg/ml retinoic acid, […] trasferrin, 5 μg/ml insulin, 5 μg/ml epinephrine, and 0.5 mg/ml BSA-FAF.
(§2) Briefly, cells were harvested with 0.125% (w/v) trypsin-0.02% EDTA (GIBCO) from exponential-phase maintenance cultures and centrifuged (300 g×5 minutes). After suspension and counting, cells were dispensed within triplicate 96-well tissue culture plates in 100 μl volumes. […] NNIs were reconstituted in DMSO to a concentration of 100 mM. […] Control wells with medium containing 0.25% of DMSO alone were included as controls. Culture plates were then incubated for 24 hour before adding 10 μl of MTT solution (5 mg/ml in PBS) to each well. Wells containing only medium and MTT were used as control for each plate. The tetrazolium/formazan reaction was allowed to proceed for 4 hours at 37° C., and then 100 μl of the solubilization buffer (10% sodium dodecyl sulfate in 0.1% HCl) was added to all wells and mixed thoroughly to dissolve the dark blue formazan crystals.
(§3) After an overnight incubation at 37° C., the optical densities (OD) at 540 nm were measured using a 96-well multiscanner autoreader with the solubilization buffer serving as blank, To translate the OD540 values into the number of live cells in each well, the OD540 values were compared to those on standard OD540-versus-cell number curves generated for each cell line. The percent survival was calculated using the formula: % survival=Live cell number [test]/Live cell number [control]×100. All assays were run in triplicate and the results were expressed as IC50 values. The IC50 was defined as the concentration required for 50% reduction in cell survival.

human sperm [2] = assay: Sperm immobilizing activity, concentration-dependent, CASA; format: cell-based; settings: for EC50: Homo sapiens, Sperm, read-out: Spermicidal activity EC50 (sperm motility); for effect on sperm motility: concentrations as high as 500 μM
Procedure: All donor sperm specimens were obtained after informed consent and in compliance with the guidelines of the Hughes Institute Institutional Review Board. Motile sperm (≧10×10^6/ml), were suspended in 1 ml of Biggers, whitten, and Whittingam's medium (BWW) containing 25 mM HEPES (Irvine Scientific, Santa Ana, Calif.), and 0.3% BSA in the presence and absence of serial two-fold dilutions of test substance (500 μM to 31.2 μM) in 1% DMSO. The stock solutions of NNIs were prepared in DMSO (100 mM) and diluted in assay medium to yield the desired concentrations. Corresponding volume of DMSO (1%) was added to control tubes. N-9 was diluted in BWW-0.3% BSA (pH 7.4) to yield the desired concentrations (31.2 μM to 500 μM). After 3 hours of incubation at 37° C., the percentage of motile sperm was evaluated by CASA by procedures as described in D'Cruz et al., BIOL REPROD, 58:1515-1526, (1998); and D'Cruz et al., MOL HUM REPROD, 4:683-693 (1998). The percent motilities were compared with sham-treated control suspensions of motile sperm. The spermicidal activity of test compounds was expressed as the EC50 (the final concentration of the compound in medium that decreases the proportion of motile sperm by 50%).
(§4) For CASA, 4 μl of each sperm suspension were loaded into two 20-μm Microcell chambers in a counting chamber at 37° C. At least 5-8 fields per chamber were scanned for analysis using a Hamilton Thome Integrated Visual Optical System (IVOS), version 10 instrument (Hamilton Thorne Research Inc., Danvers, Mass.). Each field was recorded for 30 seconds. The computer calibrations were set at 30 frames at a frame rate of 30/second. Other settings were as follows: minimum contrast 8; minimum size 6; low-size gate, 1.0; high-size gate, 2.9; low-intensity gate, 0.6; high-intensity gate, 1.4; phase-contrast illumination; low path velocity at 10 μm/s, and threshold straightness at 80%; and magnification factor, 1.95.
(§5) The sperm kinematics parameters that were determined included numbers of motile (MOT) and progressively (PRG) motile sperm; curvilinear velocity (VCL; a measure of the total distance traveled by a given sperm during the acquisition divided by the time elapsed); average path velocity (VAP; the spatially averaged path that eliminates the wobble of the sperm head), straight line velocity (VSL; the straight-line distance from beginning to end of track divided by time taken), beat cross frequency (BCF; frequency of sperm head crossing sperm average path), the amplitude of lateral head displacement (ALH; the mean width of sperm head oscillation), and the derivatives, straightness (STR=VSL/VAP×100) and linearity (LIN=VSL/VCL×100; departure of sperm track from a straight line). Data from each individual cell track were recorded and analyzed. At least 200 motile sperm were a nalyzed for each aliquot sampled.

HTLVIIIB strain of HIV-1 = assay: p24 antigen production in HIV-1 (HTLVIIIB) infected PBMCs; settings: Human immunodeficiency virus 1, PBMC
Procedure: The HTLVIIIB strain of HIV-1 was propagated in CCRF-CEM cells and the virus stocks obtained from cell-free supernatants of infected cells were titered using MT-2 cells. Cell-free supernatants were harvested and frozen in 1 ml aliquots at −70° C. Titration of the stock virus was performed using MT-2 cells and the cytopathic effect of the virus used in this study was typical of HIV-1 on MT-2 cells.
Cells were cultured for 7 days in 96-well microtiter plates (100 μl/well; 2×10^6 cells/ml, triplicate wells) in the presence and absence of various concentrations (0.001 μM to 100 μM) of the anti-HIV agents. Cells from non-infected controls were handled in the same way except the virus was omitted from the preparation. Aliquots of culture supernatants were removed from the wells on the 7th day after infection for RT assays and p24 antigen, as previously described in the following references: Erice et al., ANTIMICROB AG CHEMOTHER, 37:835-838 (1993); Uckun et al., ANTIMICROB AGENTS CHEMOTHER, 42:383-388 (1998); and Zarling et al., Nature 347:92-95 (1990).
The p24 enzyme immunoassay was the unmodified kinetic assay available commercially (Coulter Corporation/Immunotech, Inc., Westbrook, Me.). The assay uses a murine monoclonal antibody to the HIV core protein coated onto microwell strips to which the antigen present in the test culture supernatant sample binds. […] The plates were read on a ELISA reader (Molecular Devices, Sunnyvale, Calif.) at 650 nm and p24 levels, expressed as ng/ml, were calculated against known standards supplied by Coulter/Immunotech, Inc. Percent viral inhibition was calculated by comparing the p24 values for the test substance-treated infected cells with the p24 values for untreated infected cells (i.e., virus controls).
Percent inhibition of virus replication was calculated by comparing the p24 antigen values or RT activity from the test drug-treated infected cells with p24 antigen values or RT activity from untreated infected cells. The anti-HIV activity of compounds was expressed as the IC50 values, calculated from the dose-response curves, and defined as the drug concentration that decreases the HIV-1 RT activity or p24 antigen production in HIV-1 infected PBMCs, by 50%.

[3] = tested on: human sperm acrosomal membrane; assay: Sperm acrosomal membrane integrity, confocal laser scanning microscopy (FITC-Pisum sativum lectin); format: cell-based; settings: for acrosome status in confocal images: 500 μM, 6 hours
Procedure: The percentages of sperm with an intact acrosome following a 6 hour treatment with and without increasing concentrations (31.2 μM to 500 μM) o f th e three NNIs (S-DABO, F-PBT and D-PBT in comparison to N-9 were evaluated by CLSM. Ethanol permeabilized and airdried sperm smears were stained sequentially with the three fluorescent markers, FITC-Pisum sativum lectin, TOTO-3 iodide, and Nile red (Molecular Probes, Eugene, Oreg.) because their targets are different (acrosome, nucleus, and membrane lipid respectively). Samples were examined under a BioRad MRC-1024 Laser Scanning Confocal Microscope (BioRad Laboratories, Hercules, Calif.) equipped with a krypton/argon mixed gas laser (excitation lines 488, 568, and 647 nm) and mounted on a Nikon Eclipse E800 series upright microscope. The fluorescence emission of fluorescein, TOTO-3 iodide, and Nile red from the acrosomal region, nucleus, and the plasma membrane of sperm after ethanol permteabilization were si multan eously detected using the […], and 680 DF32 emission/filter, respectively. Confocal images were obtained using a Nikon 100×(NA 1.35) objective lens and Kalman collection filter. Digitized images were saved on a Jaz disk (Iomega Corporation, Roy, UT) and process ed using Lasersharp Bio-Rad) with the Adobe Photoshop software (Adobe Systems, Mountain View, Calif.). Final images were printed on a Fuji Pictrography 3000 (Fuji Photo Film Co., Tokyo, Japan) color printer.

[4] = tested on: normal human endocervical epithelial cells (CrEC-En 4312); assay: MTT cell proliferation assay, endocervical epithelial cells; format: cell-based; settings: for IC50: Homo sapiens, Epithelial cell, read-out: IC50 endocervical epithelial cells; for SI (Selectivity Index) endocervical epithelial cells: ratio of IC50 to EC50 (sperm)
Procedure: as §1, §2, §3

[5] = biological target: purified recombinant HIV RT (Human immunodeficiency virus type 1 group M subtype B, UniProt P04585); assay: RT inhibitory activity against purified recombinant HIV RT (cell-free Quan-T-RT scintillation proximity assay)
Procedure: In the assay, a DNA/RNA primer/template is bound to SPA beads via a biotin/streptavidin linkage. The primer DNA is a 16-mer oligo(T) which has been annealed to a poly(rA) template. The primer/template is bound to a streptavidin-coated SPA bead. ^3H-TTP is incorporated into the primer by reverse transcription. In brief, ^3H-TTP, at a final concentration of 0.5 Ci/sample was diluted in RT assay buffer (49.5 mM Tris-HCl, pH 8.0, 80 mM KCl, 10 mM MgCl2, 10 mM DTT, 2.5 mM EGTA, 0.05% Nonidet-P-40), and added to annealed DNA/RNA bound to SPA beads. The compound being tested was added to the reaction mixture at 0.001 μM-100 μM concentrations. […] The reaction was stopped by addition of 0.2 ml of 120 mM EDTA. The samples were counted in an open window using a Beckman LS 7600 instrument (Beckman Instruments, Fullerton, Calif.).

human sperm [6] = assay: Time-dependent sperm immobilization and sperm kinematic parameters, CASA; format: cell-based; settings: 1 mM
Procedure: To test the effect of duration of incubation on SIA of spermicidal NNIs, motile fractions of sperm (10^7/ml) were incubated at 37° C. in BWW-0.3% BSA in the presence of 1 mM F-PBT, S-DABO in 1% DMSO or 1% DMSO alone as vehicle control. At timed intervals of 5 or 10 minutes, duplicate aliquots (4-μl) were transferred to two 20 μm Microcell chambers (Conception Technologies) and sperm motility was assessed by CASA for a duration of 60 minutes.
as §4, §5

[7] = 168 h, read-out: IC50 p24 (HTLVIIIB)
[8] = 3 hours incubation at 37° C., CASA
[9] = in Homo sapiens, read-out: IC50[p24], HIV replication in PBMCs

Row | Compound | IC50 ([1]; 24 h) [µM] | SI (Selectivity Index) ectocervical epithelial cells [1] | EC50 (human sperm [2]; 3 h) [µM] | IC50 (HTLVIIIB strain of HIV-1; [7]) [µM] | acrosome status in confocal images [3] | IC50 ([4]; 24 h) [µM] | SI (Selectivity Index) endocervical epithelial cells [4] | effect on sperm motion parameters (PRG, VCL, VAP, VSL, STR, LIN, BCF, ALH) (human sperm [2]; CASA) | EC50 (human sperm [2]; [8]) [µM] | effect on sperm motility (human sperm [2]) | IC50 (HTLVIIIB strain of HIV-1; [9]) [µM] | IC50 [5] [µM] | spermicidal activity (in words) (human sperm [2]) | further results
1 | CCCCCCCCCc1ccc(OCCOCCOCCOCCOCCOCCOCCOCCOCCO)cc1 [Compound N-9, nonoxynol-9, reference compound] | 15 | 0.18 | 81 | 2.2 | no green fluorescence; also recorded: only acrosome-reacted sperm | 11 | 0.13 | – | – | – | – | – | – | acrosomal staining (FIG. 5A) ([3]; after 6 hours of incubation): complete loss of acrosomal staining
2 | COc1ccc(OC)c(CCNC(=S)Nc2ccc(Br)cn2)c1 [D-PBT, N-[2-(2,5-dimethoxyphenethyl)]-N′-[2-(5-bromopyridyl)]-thiourea] | – | – | – | < 0.001 | – | – | – | did not alter the sperm motion parameters | > 500 | did not affect sperm motility | < 0.001 | 0.1 | – | –
3 | Fc1ccccc1CCNC(=S)Nc1ccc(Br)cn1 [F-PBT, N-[2-(2-fluorophenethyl)]-N′-[2-(5-bromopyridyl)]-thiourea] | > 1000 | >6.8 | 147 | < 0.001 | acrosomes remained intact; also recorded: None of the FIGS. 5B, 5C, or 5D show increased acrosome reaction | > 1000 | >6.8 | – | – | – | < 0.001 | 0.4 | concentration- and time-dependent spermicidal activity | IC50 [1]: > 1000 µM; time required for 50% motility loss of progressively motile sperm (human sperm [6]; 37° C.): 10 min; beat cross frequency (BCF) and amplitude of lateral head displacement (ALH) (human sperm [6]; time-dependent, 60 minutes): relatively stable; linearity (LIN) and straightness (STR) (human sperm [6]; time-dependent, 60 minutes): remained relatively constant; movement characteristics of surviving sperm (VCL, VAP, VSL) (human sperm [6]; time-dependent, 60 minutes): significant changes; IC50 [4]: > 1000 µM
4 | CSCSc1nc(Cc2ccccc2)c(C(C)C)c(=O)[nH]1 [S-DABO, 5-isopropyl-2-[(methylthiomethyl)thio]-6-(benzyl)-pyrimidin-4-(1H)-one] | – | >19.8 | – | < 0.001 | acrosomes remained intact; also recorded: None of the FIGS. 5B, 5C, or 5D show increased acrosome reaction | – | >19.8 | – | 202 | – | < 0.001 | 6.1 | concentration- and time-dependent spermicidal activity | IC50 ([1]; 24 hours treatment, MTT): > 4000 µM; IC50 ([1]; MTT dose survival curves): > 4000 µM; IC50 ([4]; 24 hours treatment, MTT): > 4000 µM; IC50 ([4]; MTT dose survival curves): > 4000 µM
5 | S=C(NCCc1ccccn1)Nc1ccc(Br)cn1 [Trovirdine, reference compound] | – | – | > 500 | 0.007 | – | – | – | did not alter the sperm motion parameters | – | did not affect sperm motility | – | – | – | –
